From US8410045B2, “Camptothecin-peptide conjugates and pharmaceutical compositions containing the same” (Drais Pharmaceuticals, Inc., priority 2006, dated 2013)
Where two headings read alike, the source gives them in different places. Marks after values point to notes of the source that are not given here.

What was measured:
[1] = Stability of conjugates in citrated plasma at 37° C. (half life time, HPLC fluorescence); assay type: in vitro ADME, human; conditions: for half-life: human, plasma
Method in brief: (§1)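 Conjugates at 2.55 μM incubated at 37° C in citrated plasma of several species, including human and dog. After TFA/acid extraction, released free camptothecin derivative (e.g. SN38) measured by reversed-phase C18 HPLC with fluorescence detection; half-life taken as time to 50 mol% release.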

[2] = as above; assay type: in vitro ADME; conditions: dog
Method in brief: as §1

[3] = as above; assay type: in vitro ADME; conditions: DPV1047-linker-SN38, 2.55 μM
Procedure: The stability of the conjugates was tested in citrated plasma (10% (v/v) sodium citrate buffer, 0.106M) from different species (see Table 1 below). The conjugates at 2.55 μM were incubated at 37° C. in plasma. Samples were analysed using the HPLC fluorescence method described below (see chromatographic equipment and conditions) following TFA/acetonitrile extraction and the amount of free camptothecin, analogs or derivatives thereof (e.g. SN38) released by the conjugates was measured.
Chromatographic equipment and conditions: 150 μL of each sample were placed in 1.5 mL micro-centrifuge tubes. 450 μL of 5% (v/v) TFA in H2O was added to each tube and the mixture was vortexed for 5 seconds. Samples were then centrifuged at 16000 g, 3 minutes at +4° C. 100 μL of supernatant were placed in 1.5 mL micro-centrifuge tubes. Methanol (100 μL) was then immediately added and vortexed for 5 seconds. Samples were then centrifuged at 16000 g, 3 minutes at room temperature. 150 μL of supernatant were recovered for HPLC analysis. Conjugates, metabolites and camptothecin derivative (i.e. SN38) were separated by high-performance liquid chromatography (HPLC; Agilent 1100 series equipped with a fluorescence detector) using a 4.6×100 mm ([…] particle size) Luna C18(2) column (Phenomenex ref. 00D-4251-E0, Le Pecq, France). The aqueous component of the mobile phase (A) was 0.1% (v/v) TFA in water. The organic modifier (B) was acetonitrile containing 0.1% (v/v) TFA. For the conjugate and its metabolites an elution gradient increasing linearly the proportion of B from 15 to 37% in 2 min, from 37 to 47% in 6 min, followed by 2 min at 90% was applied with a constant flow rate of 1.2 mL/min. The proportion of B was then returned to the initial condition for 3.0 min.
The half life time of conjugate corresponds to the time necessary to have 50% by mole of free camptothecin, analogs or derivatives thereof released by the conjugates of the invention. In human plasma, the half life time of conjugate DPV1047-linker #1-SN38 (less than 5 mins) was shorter than that of conjugate DPV1047-linker #2-SN38 (6-7 mins), which, in turn, was shorter than that of conjugate DPV1047-linker #3-SN38 (12 mins).

[4] = system: LS 174T human colorectal carcinoma tumor; experiment: Antitumor efficacy in human LS 174T xenograft colon tumor model implanted in nude rats; assay type: in vivo
Procedure: The LS 174T study was performed using female nude rats (8 weeks old) purchased from Harlan breeding center (Gannat, France). LS 174T tumors were established by a subcutaneously implantation of cell (ATCC Number: CCl-188) suspensions in the right flank of the animals. The first injection of drugs was performed when the tumors reached a size of about 1000 mm^3. The tumor volume was calculated using the following formula: [length×width^2]/2.

[5] = system: HT-29 colorectal carcinoma; experiment: Antitumor efficacy in HT-29 colorectal carcinoma model in nude mice; assay type: in vivo; conditions: Table 7
[6] = system: MDA-MB-231 mammary carcinoma; experiment: Antitumor efficacy in MDA-MB-231 mammary carcinoma model in nude mice; assay type: in vivo; conditions: Table 7, i.v. Q2D3 × 3 W
[7] = system: HCT 116 human epithelial colon carcinoma cells; experiment: cells; assay type: cell-based
Procedure: Cytotoxic evaluation was performed by seeded cells for 24 h prior to the addition of the therapeutic compound. Cells were incubated for 48 h (37° C.) with different dilutions of the therapeutic compound. Cell viability was then assessed using the WST-1 assay (Roche). The results are expressed as mean cytotoxic concentrations (IC50 value or molar concentration that inhibits 50% of cell viability) that were estimated from sigmoid regression, using Graph Pad Prism 3.02 software.
HCT 116 (ATCC #: CCL-247): human epithelial colon carcinoma cells. Cells were cultured in Mc Coy's 5a medium+1.5 mM L-glutamine and 10% fetal bovine serum. Cells were plated at a density of 8000 cells/well in 96-well plates.

[8] = system: NCI-H460 human epithelial lung carcinoma cells; experiment: In vitro cytotoxicity (WST-1 cell viability); assay type: cell-based; conditions: 24 h
[9] = system: HCT 116 human colorectal carcinoma tumor
[10] = Table 4, 20 (cumulative 100) μmol/kg, i.v. bolus, Q3/4Dx5
[11] = Table 7, i.v. Q4D × 5, 10 μmol/kg
[12] = Table 7, i.v. Q4D × 5, 20 μmol/kg
[13] = Table 3, 30 (cumulative 90) μmol/kg, i.v. bolus, Q4Dx3
[14] = Table 7, i.v. Q2D3 × 3 W, 25 μmol/kg

CCc1c2c(nc3ccc(OC(=O)[C@H]4CC[C@H](CNC(=O)C5CCC(CN6C(=O)CC(SC[C@H](N)C(=O)N[C@H](C(=O)N[C@@H](CCCCN)C(=O)N[C@@H](CCCNC(=N)N)C(=O)NCC(=O)N[C@@H](CC(C)C)C(=O)N[C@@H](CCCCN)C(=O)N[C@@H](CC(C)C)C(=O)N[C@@H](CCCNC(=N)N)C(=O)N[C@@H](Cc7c[nH]cn7)C(=O)N[C@H](C(=O)N[C@@H](CCCNC(=N)N)C(=O)N7CCC[C@H]7C(=O)N[C@@H](CCCNC(=N)N)C(=O)N[C@H](C(=O)N[C@H](C(=O)N[C@@H](CCCNC(=N)N)C(=O)N[C@@H](CCSC)C(=O)N[C@@H](CC(=O)O)C(=O)N[C@H](C(=O)O)C(C)C)[C@@H](C)O)C(C)C)C(C)C)C(C)C)C6=O)CC5)CC4)cc13)-c1cc3c(c(=O)n1C2)COC(=O)[C@]3(O)CC (single isomer, unassigned) [DPV1047-BCH-SN38]
half life time, times longer than the DPV1047-linker #2-SN38 conjugate ([1]; human plasma): 60 times | half-life ([1]; DPV1047-linker-SN38, 2.55 μM, citrated plasma, read-out: Half life time, Human plasma): 6.67 h | half-life ([1]; Table 10, SN38 conjugates, read-out: Human Plasma Half life time): 6 h | half-life ([1]; Table 12, CPP-linker #5-SN38 conjugates incl. D conformation, read-out: Human Plasma Half life time): 6.37 h | half-life ([2]; DPV1047-linker-SN38, 2.55 μM, citrated plasma, read-out: Half life time, Dog plasma): 4.5 h | half-life ([2]; Table 10, SN38 conjugates, read-out: Dog Plasma Half life time): 4.33 h | half-life ([2]; Table 12, CPP-linker #5-SN38 conjugates incl. D conformation, read-out: Dog Plasma Half life time): 4 h | half-life ([3]; time to 50% by mole free SN38 released, read-out: Half life time, Mouse plasma): < 0.05 h | half-life ([3]; monkey): 4.83 h | half-life ([3]; rat): 0.233 h | Minimal T/C (%) [4, 10]: 43% | TGI % [4, 10]: 57*** % | Optimal T/C % [4, 11]: 47.2% | TGI % [4, 11]: 52.8% | Optimal T/C % [4, 12]: 42.8% | TGI % [4, 12]: 57.2% | Optimal T/C % ([5]; i.v. Q4D × 3, 12.5 μmol/kg): 66.8% | TGI % ([5]; i.v. Q4D × 3, 12.5 μmol/kg): 33.2% | Optimal T/C % ([5]; i.v. Q4D × 3, 25 μmol/kg): 39.2% | TGI % ([5]; i.v. Q4D × 3, 25 μmol/kg): 60.8% | Optimal T/C % ([6]; 12.5 μmol/kg): 34.1% | TGI % ([6]; 12.5 μmol/kg): 65.9% | Optimal T/C % ([6]; 25 μmol/kg): 30.1% | TGI % ([6]; 25 μmol/kg): 69.9% | IC50 ([7]; 24 h): 24 nM | IC50 ([7]; 48 h): 29 nM | IC50 [8]: 40 nM | clinical signs of toxicity such as body weight loss, diarrhea or alopecia ([9]; HCT 116 tumor-bearing nude mice, conjugates administered at their MADs): No clinical signs of toxicity | Minimal T/C (%) [9, 13]: 10% | TGI % [9, 13]: 80% | TGI (100-T/C %) ([9]; Table 5, Q1D5, 18 (cumulative 90) μmol/kg): 93*** % | Minimal T/C (%) ([9]; Table 5, Q1D5, 18 (cumulative 90) μmol/kg, i.v. bolus): 7% | Minimal T/C (%) ([9]; Table 5, Q2D3x3W, DPV1047-BCH-SN38 25 (225), irinotecan 48 (432) μmol/kg): 3% | TGI (100-T/C %) ([9]; Table 5, Q2D3x3W, DPV1047-BCH-SN38 25, irinotecan 48 μmol/kg): 97*** % | Optimal T/C % [9, 14]: 3.4% | TGI % [9, 14]: 96.6% | Minimal T/C (%) ([9]; mouse, in vivo): 10% | TGI (100-T/C %) ([9]; mouse, in vivo): 90*** %
